Results from patent publication US20200129630A1, “METHODS FOR TREATING CANCER” (BicycleRD Limited, priority 2018, published 2020).
Read-outs that look alike come from different tables or passages of the source. Numbered stars: 1 amine (or outer) side, 2 acyl side, 3 side chain; on linkers, the order of the positions; unused ones are H or OH. Bridge positions count the residues as written; N and C are the ends. Square brackets hold non-standard residues; d marks the D form. Peptide text beside a SMILES is read from it. 1Nal = N[C@@H](Cc1cccc2ccccc12)C(=O)O; TBMB = c1c(C[*:1])cc(C[*:3])cc1C[*:2]; Tle = CC(C)(C)[C@H](N)C(=O)O; βAla = NCCC(=O)O; Sar = CNCC(=O)O

Tests used:
[1] = test system: MT1 MMP-expressing NSCLC PDX models; experiment: MT1-MMP-expressing NSCLC PDX models, docetaxel-sensitive and -resistant; assay type: in vivo; details: 60 mg/m^2 once weekly
Description: Furthermore, BT1718 produced an anti-tumor effect against MT1 MMP-expressing NSCLC PDX models irrespective of their sensitivity to the SOC chemotherapeutic docetaxel. […] The PDX models confirm that MT1-MMP expression is necessary for BT1718 anti-tumor activity.

NSCLC = details: second-line treatment, PD-1 checkpoint blockade; cited from earlier work
[2] = human; previously reported; cited from earlier work
[3] = [^3H]-DM1 200 μg/kg IV, rat; cited from earlier work
[4] = rat; previously reported; cited from earlier work
[5] = monkey; previously reported; cited from earlier work
[6] = test system: HER2 positive breast cancer; details: third-line, HER2 positive population; cited from earlier work
[7] = Intrinsic clearance in cryopreserved hepatocytes; assay type: in vitro ADME
Procedure: Accumulation of the majority of the radioactivity was found in the kidney and bladder irrespective of the labelled peptide dose; this is indicative of either non-saturable excretion or proteolysis followed by excretion through the kidneys. Furthermore, the intrinsic clearance of BT1718 and its Bicycle component, N241 was low when measured in cryopreserved hepatocytes. […] Unconjugated DM1, when radiolabelled, (as [[^3H]-DM1 (91 μCi/kg, 200 μg/kg, IV), was reported to distribute rapidly and extensively to the lungs, liver, kidney, spleen, heart, gastrointestinal tract, and adrenal glands in the rat. The major route of excretion of DM1 was through the bile/faeces, with a minimal amount excreted in the urine, a completely different distribution to BT1718 and its metabolites with little and short lived accumulation seen in other organs such as heart, liver, GI and lungs which would imply that these organs maybe spared systemic toxicity.

[8] = in vitro immunogenicity tests, n=50
Description: These include in vitro tissue microarray in human, rat and monkey tissues and in vitro and in vivo assessment of immunogenicity. In vivo assessments include single dose toxicity in mice and rats, multiple dose range finding studies in mice, rats, dogs and monkeys (non-GLP) and GLP-compliant multiple dose studies in rats and monkeys consisting of 28-day on study phase with a 28-day recovery period.

MMP1, MMP2 and MMP9 = experiment: Effect on related MMP catalytic activity; assay type: biochemical
Procedure: (§1) Bicycle drug conjugates (BDCs) with a variety of linkers and cytotoxic payloads were prepared which retained binding to MT1.

[9] = test system: catalytic domain of MT1-MMP; experiment: Binding to catalytic domain of MT1-MMP
Procedure: as §1
(§2) BT1718 is a BDC that binds to MT1-MMP and upon cleavage of its disulphide linker, releases the cytotoxic tubulin inhibitor, DM1 (also referred to as DM1-SH).

[10] = test system: cell migration or invasion; experiment: Cell migration or invasion; assay type: cell-based
Procedure: as §1

[11] = test system: MMP15, MMP16, MMP24, MMP1, Pro-MMP1, MMP2; experiment: Binding to related MMP family members
Procedure: as §1, §2

MT1-MMP = MT1-MMP (Homo sapiens, UniProt P50281); experiment: Effect on catalytic (proteolytic) activity of MT1-MMP; assay type: biochemical; details: in vitro
Procedure: as §1, §2

NMB selected tumors = details: cited from earlier work

For `CC(=O)O[C@@]12CO[C@@H]1C[C@H](O)[C@@]1(C)C(=O)[C@H](O)C3=C(C)[C@@H](OC(=O)[C@H](O)[C@@H](NC(=O)OC(C)(C)C)c4ccccc4)C[C@@](O)([C@@H](OC(=O)c4ccccc4)[C@H]21)C3(C)C` [docetaxel], the anti-tumor effect [1] was “regression only in the docetaxel-sensitive model”.
In the case of “nivolumab: PD-1 checkpoint blockade agent”, the ORR (NSCLC) is listed as “around 20%”.
For “atezolizumab: PD-1 checkpoint blockade agent”, the ORR (NSCLC) is given as “around 20%”.
In the case of “pembrolizumab: PD-1 checkpoint blockade agent”, the ORR (NSCLC) is listed as “around 20%”.
For `COc1cc2cc(c1Cl)N(C)C(=O)C[C@H](OC(=O)[C@H](C)N(C)C(=O)CCS)[C@]1(C)O[C@H]1[C@H](C)[C@@H]1C[C@@](O)(NC(=O)O1)[C@H](OC)/C=C/C=C(\C)C2` [DM1], the unbound fraction [2] is listed as 7%, the “major route of excretion” value [3] is listed as “bile/faeces” and the unbound fraction [4] is listed as 3%. For the same molecule, the unbound fraction [5] was 7%.
For T-DM1, the ORR [6] is given as 31%.
In the case of `C[C@H](NC(=O)CN(C)C(=O)CN(C)C(=O)CN(C)C(=O)CN(C)C(=O)CN(C)C(=O)CN(C)C(=O)CN(C)C(=O)CN(C)C(=O)CN(C)C(=O)CN(C)C(=O)CCN)C(=O)N[C@H]1CSCc2cc3cc(c2)CSC[C@H](NC(=O)[C@@H](C)NC(=O)[C@H](Cc2cccc4ccccc24)NC(=O)[C@H](CCC(=O)O)NC(=O)[C@H](CC(N)=O)NC(=O)[C@@H](C)NC1=O)C(=O)N[C@@H](CCC(=O)O)C(=O)N[C@@H](CC(=O)O)C(=O)N[C@@H](Cc1ccccc1)C(=O)N[C@@H](Cc1ccc(O)cc1)C(=O)N[C@@H](CC(=O)O)C(=O)N[C@@H](C(C)(C)C)C(=O)N[C@H](C(N)=O)CSC3` [N241] (H-[βAla][Sar][Sar][Sar][Sar][Sar][Sar][Sar][Sar][Sar][Sar]AC[dA]NE[1Nal][dA]CEDFYD[Tle]C-NH2; linker 13-19-26 via TBMB; N-terminus and C-terminus assumed), the intrinsic clearance [7] is reported as “low”, the “positive responses in donor cohort” value [8] is reported as 2% and the “impact on related MMP catalytic activity” value (MMP1, MMP2 and MMP9) is reported as “no direct impact”. For the same molecule, the “binding to the catalytic domain” value [9] was “no binding”, the “selectivity over catalytic domain of MT1-MMP” value [9] was “at least 50 fold” and the “impact on cell migration or invasion” value [10] was “no direct impact”. For the same molecule, the “selectivity over other related-MMP hemopexin domains” value [11] was “over 200 fold”, the “binding toward closely related MMP family members” value ([11]; MMP15, MMP16, MMP24, MMP1, Pro-MMP1, MMP2) was “no binding” and the “impact on the catalytic activity of the protease” value (MT1-MMP) was “no direct impact”.
For “CDX-011: Antibody-Drug Conjugate (ADC) against glycoprotein NMB”, the ORR (NMB selected tumors) is given as 30%.
